Measured values reported in ChEMBL document CHEMBL3112480, “γ-Alkylidene-γ-lactones and isobutylpyrrol-2(5H)-ones analogues to rubrolides as inhibitors of biofilm formation by gram-positive and gram-negative bacteria” (Bioorg Med Chem Lett, 2014).
Converted amounts (≈) assume the structure as drawn.

Key:
[1] = system: Pseudomonas aeruginosa; experiment: Antibacterial activity against Pseudomonas aeruginosa ATCC 27853 assessed as effect on planktonic growth at 0.17 ug/ml after 20 hrs relative to control; format: functional
[2] = system: Staphylococcus aureus; experiment: Antibacterial activity against Staphylococcus aureus ATCC 25923 assessed as effect on planktonic growth at 0.68 ug/ml after 20 hrs relative to control; format: functional
[3] = system: Staphylococcus aureus; experiment: Antibacterial activity against Staphylococcus aureus ATCC 25923 assessed as effect on planktonic growth at 2.73 ug/ml after 20 hrs relative to control; format: functional
[4] = system: Staphylococcus epidermidis; experiment: Antibacterial activity against Staphylococcus epidermidis ATCC 35547 assessed as effect on planktonic growth at 21.9 ug/ml after 20 hrs relative to control; format: functional
[5] = system: Staphylococcus epidermidis; experiment: Antibacterial activity against Staphylococcus epidermidis ATCC 35547 assessed as effect on planktonic growth at 2.73 ug/ml after 20 hrs relative to control; format: functional
[6] = system: Staphylococcus aureus; experiment: Antibacterial activity against Staphylococcus aureus ATCC 25923 assessed as effect on planktonic growth at 1.37 ug/ml after 20 hrs relative to control; format: functional
[7] = system: Staphylococcus epidermidis; experiment: Antibacterial activity against Staphylococcus epidermidis ATCC 35547 assessed as effect on planktonic growth at 43.8 ug/ml after 20 hrs relative to control; format: functional
[8] = system: Staphylococcus epidermidis; experiment: Antibacterial activity against Staphylococcus epidermidis ATCC 35547 assessed as effect on planktonic growth at 5.5 ug/ml after 20 hrs relative to control; format: functional
[9] = system: Staphylococcus epidermidis; experiment: Antibacterial activity against Staphylococcus epidermidis ATCC 35547 assessed as effect on planktonic growth at 1.37 ug/ml after 20 hrs relative to control; format: functional
[10] = system: Streptococcus mutans; experiment: Antibacterial activity against Streptococcus mutans ATCC 25175 assessed as effect on planktonic growth at 5.5 ug/ml after 20 hrs relative to control; format: functional
[11] = system: Streptococcus mutans; experiment: Antibacterial activity against Streptococcus mutans ATCC 25175 assessed as effect on planktonic growth at 21.9 ug/ml after 20 hrs relative to control; format: functional
[12] = system: Streptococcus mutans; experiment: Antibacterial activity against Streptococcus mutans ATCC 25175 assessed as effect on planktonic growth at 0.34 ug/ml after 20 hrs relative to control; format: functional
[13] = system: Pseudomonas aeruginosa; experiment: Antibacterial activity against Pseudomonas aeruginosa ATCC 27853 assessed as effect on planktonic growth at 0.34 ug/ml after 20 hrs relative to control; format: functional
[14] = system: Pseudomonas aeruginosa; experiment: Antibacterial activity against Pseudomonas aeruginosa ATCC 27853 assessed as effect on planktonic growth at 1.37 ug/ml after 20 hrs relative to control; format: functional
[15] = system: Staphylococcus aureus; experiment: Antibacterial activity against Staphylococcus aureus ATCC 25923 assessed as effect on planktonic growth at 0.34 ug/ml after 20 hrs relative to control; format: functional
[16] = system: Staphylococcus aureus; experiment: Antibacterial activity against Staphylococcus aureus ATCC 25923 assessed as effect on planktonic growth at 87.5 ug/ml after 20 hrs relative to control; format: functional
[17] = system: Staphylococcus aureus; experiment: Antibacterial activity against Staphylococcus aureus ATCC 25923 assessed as effect on planktonic growth at 43.8 ug/ml after 20 hrs relative to control; format: functional
[18] = system: Staphylococcus aureus; experiment: Antibacterial activity against Staphylococcus aureus ATCC 25923 assessed as effect on planktonic growth at 10.9 ug/ml after 20 hrs relative to control; format: functional
[19] = system: Pseudomonas aeruginosa; experiment: Antibacterial activity against Pseudomonas aeruginosa ATCC 27853 assessed as effect on planktonic growth at 87.5 ug/ml after 20 hrs relative to control; format: functional
[20] = system: Staphylococcus epidermidis; experiment: Antibacterial activity against Staphylococcus epidermidis ATCC 35547 assessed as effect on planktonic growth at 87.5 ug/ml after 20 hrs relative to control; format: functional
[21] = system: Streptococcus mutans; experiment: Antibacterial activity against Streptococcus mutans ATCC 25175 assessed as effect on planktonic growth at 0.68 ug/ml after 20 hrs relative to control; format: functional
[22] = system: Pseudomonas aeruginosa; experiment: Antibacterial activity against Pseudomonas aeruginosa ATCC 27853 assessed as inhibition of biofilm formation after 20 hrs by crystal-violet staining method; format: functional, organism-based; details: for IC50: ATCC 27853, 20 h
[23] = system: Staphylococcus aureus; experiment: Antibacterial activity against Staphylococcus aureus ATCC 25923 assessed as effect on planktonic growth at 0.17 ug/ml after 20 hrs relative to control; format: functional
[24] = system: Streptococcus mutans; experiment: Antibacterial activity against Streptococcus mutans ATCC 25175 assessed as effect on planktonic growth at 2.73 ug/ml after 20 hrs relative to control; format: functional
[25] = system: Pseudomonas aeruginosa; experiment: Antibacterial activity against Pseudomonas aeruginosa ATCC 27853 assessed as effect on planktonic growth at 0.68 ug/ml after 20 hrs relative to control; format: functional
[26] = system: Pseudomonas aeruginosa; experiment: Antibacterial activity against Pseudomonas aeruginosa ATCC 27853 assessed as effect on planktonic growth at 10.9 ug/ml after 20 hrs relative to control; format: functional
[27] = system: Staphylococcus epidermidis; experiment: Antibacterial activity against Staphylococcus epidermidis ATCC 35547 assessed as inhibition of biofilm formation after 20 hrs by crystal-violet staining method; format: functional, organism-based; details: for IC50: ATCC 35547, 20 h
[28] = system: Streptococcus mutans; experiment: Antibacterial activity against Streptococcus mutans ATCC 25175 assessed as effect on planktonic growth at 43.8 ug/ml after 20 hrs relative to control; format: functional
[29] = system: Streptococcus mutans; experiment: Antibacterial activity against Streptococcus mutans ATCC 25175 assessed as effect on planktonic growth at 0.17 ug/ml after 20 hrs relative to control; format: functional
[30] = system: Staphylococcus epidermidis; experiment: Antibacterial activity against Staphylococcus epidermidis ATCC 35547 assessed as effect on planktonic growth at 0.17 ug/ml after 20 hrs relative to control; format: functional
[31] = system: Streptococcus mutans; experiment: Antibacterial activity against Streptococcus mutans ATCC 25175 assessed as effect on planktonic growth at 10.9 ug/ml after 20 hrs relative to control; format: functional
[32] = system: Pseudomonas aeruginosa; experiment: Antibacterial activity against Pseudomonas aeruginosa ATCC 27853 assessed as effect on planktonic growth at 21.9 ug/ml after 20 hrs relative to control; format: functional
[33] = system: Streptococcus mutans; experiment: Antibacterial activity against Streptococcus mutans ATCC 25175 assessed as effect on planktonic growth at 87.5 ug/ml after 20 hrs relative to control; format: functional
[34] = system: Staphylococcus aureus; experiment: Antibacterial activity against Staphylococcus aureus ATCC 25923 assessed as effect on planktonic growth at 5.5 ug/ml after 20 hrs relative to control; format: functional
[35] = system: Pseudomonas aeruginosa; experiment: Antibacterial activity against Pseudomonas aeruginosa ATCC 27853 assessed as effect on planktonic growth at 2.73 ug/ml after 20 hrs relative to control; format: functional
[36] = system: Staphylococcus epidermidis; experiment: Antibacterial activity against Staphylococcus epidermidis ATCC 35547 assessed as effect on planktonic growth at 0.34 ug/ml after 20 hrs relative to control; format: functional
[37] = system: Pseudomonas aeruginosa; experiment: Antibacterial activity against Pseudomonas aeruginosa ATCC 27853 assessed as effect on planktonic growth at 5.5 ug/ml after 20 hrs relative to control; format: functional
[38] = system: Staphylococcus epidermidis; experiment: Antibacterial activity against Staphylococcus epidermidis ATCC 35547 assessed as effect on planktonic growth at 10.9 ug/ml after 20 hrs relative to control; format: functional
[39] = system: Streptococcus mutans; experiment: Antibacterial activity against Streptococcus mutans ATCC 25175 assessed as effect on planktonic growth at 1.37 ug/ml after 20 hrs relative to control; format: functional
[40] = system: Staphylococcus aureus; experiment: Antibacterial activity against Staphylococcus aureus ATCC 25923 assessed as effect on planktonic growth at 21.9 ug/ml after 20 hrs relative to control; format: functional
[41] = system: Pseudomonas aeruginosa; experiment: Antibacterial activity against Pseudomonas aeruginosa ATCC 27853 assessed as effect on planktonic growth at 43.8 ug/ml after 20 hrs relative to control; format: functional
[42] = system: Staphylococcus epidermidis; experiment: Antibacterial activity against Staphylococcus epidermidis ATCC 35547 assessed as effect on planktonic growth at 0.68 ug/ml after 20 hrs relative to control; format: functional

Compound: COc1ccc(Cl)cc1C1=C(Br)C(=O)O/C1=C\c1ccccc1Br
- Activity [1]: -3.8%
- Activity [2]: -10.6%
- Activity [3]: -14.4%
- Activity [4]: 27.3%
- Activity [5]: 2.9%
- Activity [6]: -14%
- Activity [7]: 42.5%
- Activity [8]: 3.9%
- Activity [9]: 2.5%
- Activity [10]: 8.6%
- Activity [11]: 22.8%
- Activity [12]: 5.6%
- Activity [13]: -5.3%
- Activity [14]: -7%
- Activity [15]: -10%
- Activity [16]: 14.6%
- Activity [17]: -2.9%
- Activity [18]: -16.9%
- Activity [19]: -8.2%
- Activity [20]: 74.6%
- Activity [21]: 5.6%
- inhibition [22]: Dose-dependent effect
- IC50 [22]: 3.9 µg/mL (≈ 8.29 µM)
- Activity [23]: -7.9%
- Activity [24]: 4.1%
- Activity [25]: -5.1%
- Activity [26]: -5.2%
- inhibition [27]: Dose-dependent effect
- IC50 [27]: 48 µg/mL (≈ 102 µM)
- Activity [28]: 26.9%
- Activity [29]: 19%
- Activity [30]: 9.5%
- Activity [31]: 8.2%
- Activity [32]: -13.4%
- Activity [33]: 57.5%
- Activity [34]: -16.7%
- Activity [35]: -7.7%
- Activity [36]: 51.8%
- Activity [37]: -8.1%
- Activity [38]: 12.1%
- Activity [39]: 4.5%
- Activity [40]: -8.3%
- Activity [41]: -9.1%
- Activity [42]: 11.1%

Compound: COc1ccccc1C1=C(Br)C(=O)O/C1=C\c1ccc(C(F)(F)F)cc1
- Activity [1]: -1.3%
- Activity [2]: -2.3%
- Activity [3]: 6.6%
- Activity [4]: 18.7%
- Activity [5]: 12.9%
- Activity [6]: -0.5%
- Activity [7]: 30.7%
- Activity [8]: -9.1%
- Activity [9]: 2.9%
- Activity [10]: -4.8%
- Activity [11]: 0.6%
- Activity [12]: 1.1%
- Activity [13]: -0.4%
- Activity [14]: -5.7%
- Activity [15]: -2%
- Activity [16]: 81.2%
- Activity [17]: 47.3%
- Activity [18]: 9.7%
- Activity [19]: 15.1%
- Activity [20]: 14.7%
- Activity [21]: -1.7%
- inhibition [22]: Dose-dependent effect
- IC50 [22]: > 87.5 µg/mL
- Activity [23]: -3.6%
- Activity [24]: -4%
- Activity [25]: -1.3%
- Activity [26]: 49.9%
- inhibition [27]: Dose-dependent effect
- IC50 [27]: > 87.5 µg/mL
- Activity [28]: 21.5%
- Activity [29]: -3.1%
- Activity [30]: -12.1%
- Activity [31]: -9.3%
- Activity [32]: 58%
- Activity [33]: 58.9%
- Activity [34]: 9.9%
- Activity [35]: -7%
- Activity [36]: -14.8%
- Activity [37]: 7.9%
- Activity [38]: 10.3%
- Activity [39]: -6.5%
- Activity [40]: 26.7%
- Activity [41]: 34.3%
- Activity [42]: -16.5%
